Legend:
human diamine oxidase = biological target: T1, human diamine oxidase (Homo sapiens, UniProt P19801); test: inhibition of human diamine oxidase; format: biochemical
T1 sequence (P19801 20-751): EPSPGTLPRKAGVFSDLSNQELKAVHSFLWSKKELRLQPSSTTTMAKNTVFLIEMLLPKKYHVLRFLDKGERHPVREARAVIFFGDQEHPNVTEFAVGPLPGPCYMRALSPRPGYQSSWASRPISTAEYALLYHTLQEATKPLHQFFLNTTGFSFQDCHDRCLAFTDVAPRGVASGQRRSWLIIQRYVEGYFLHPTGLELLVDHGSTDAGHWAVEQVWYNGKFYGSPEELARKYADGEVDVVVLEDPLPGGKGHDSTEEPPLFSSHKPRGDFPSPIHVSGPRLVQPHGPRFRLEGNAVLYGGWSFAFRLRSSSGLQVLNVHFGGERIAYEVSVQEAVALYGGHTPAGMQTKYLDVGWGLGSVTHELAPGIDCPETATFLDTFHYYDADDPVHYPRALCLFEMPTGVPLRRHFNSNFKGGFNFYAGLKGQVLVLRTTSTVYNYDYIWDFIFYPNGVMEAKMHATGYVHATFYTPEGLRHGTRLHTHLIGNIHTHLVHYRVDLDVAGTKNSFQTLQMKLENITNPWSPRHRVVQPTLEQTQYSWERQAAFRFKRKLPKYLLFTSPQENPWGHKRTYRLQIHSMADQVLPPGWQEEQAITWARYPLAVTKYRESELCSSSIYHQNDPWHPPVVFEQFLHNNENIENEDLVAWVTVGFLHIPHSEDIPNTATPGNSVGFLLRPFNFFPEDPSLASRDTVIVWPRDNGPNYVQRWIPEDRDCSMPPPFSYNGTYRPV

SGLT2 versus SGLT1 = conditions: cited from earlier work
[1] = patients with type 2 diabetes mellitus at high risk for cardiovascular events; cited from earlier work
[2] = metformin on its own, in the diabetic; cited from earlier work

## CC(C)(C)NC(=O)c1ccc(OC/C(=C/F)CN)cc1 [Compound 23, (E)-4-(2-(Aminomethyl)-3-fluoroallyloxy)-N-tert-butylbenzamide]
Human diamine oxidase
  inhibitory activity against human diamine oxidase: low inhibitory activity

## OC[C@H]1O[C@@H](c2ccc(Cl)c(Cc3ccc(O[C@H]4CCOC4)cc3)c2)[C@H](O)[C@@H](O)[C@@H]1O [empagliflozin]
SGLT2 versus SGLT1
  selectivity SGLT2 versus SGLT1: high selectivity
[1]
  rates of the primary composite cardiovascular outcome and of death from any cause: significantly lower rates

## CN(C)C(=N)N=C(N)N [metformin]
[2]
  average improvement in the HbA1c value: 1.0-1.5%
